Holding throughout (assay): NCI anticancer screen, dose series, 48 h
The subject of assay [1] is CCRF-CEM leukemia.
Assay [2] relates to A549 NSCLC.
The test system of assay [3] is NCI-H226 lung.
The test system of assay [4] is HOP-92 NSCLC.
Assay [5] concerns SK-MEL-5 melanoma.
Assay [6] relates to HL-60(TB) leukemia.
In assay [7] the test system is NCI-H460 lung.
In assay [8] the test system is HCC-2998 colon.
The subject of assay [9] is SNB-75 CNS.
The subject of assay [10] is RXF 393 renal.

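Results reflect a 48-hour exposure of cells in 96-well plates to compound at five concentrations. Abbreviation: GI50, concentration required for 50% inhibition of growth. TGI denotes the concentration required for complete inhibition of growth.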 Bounds are passed on as bounds.

Turning to `CCOC(=O)/C(=C/c1cccc(OC)c1)N(CC)CC`, the TGI in assay [1], in assay [2], in [3], in [4], in assay [5] and in assay [6] was above 100 µM in each case.

For `C[C@H]1[C@H](C)CC[C@]2(C(=O)NCCNCCN)CC[C@]3(C)C(=CC[C@@H]4[C@@]5(C)CCC(=O)C(C)(C)[C@@H]5CC[C@]43C)[C@H]12`, the GI50 in assay [3] is 14.8 µM; in assay [4], 1.73 µM; in assay [7], 1.77 µM; in [8], 1.66 µM; in assay [5], 1.8 µM. Moreover, the TGI in assay [3] is 45.5 µM; in assay [4], 4.82 µM; in assay [7] it was 3.28 µM; in [8], 3.07 µM; in assay [5], 3.23 µM.

As to `c1ccc(Cn2cnc3ccc(-c4nc(-c5ccc6c(c5)ncn6C5CCCCC5)cn5ccnc45)cc32)cc1`, the GI50 in [1] is 2.18 µM; in assay [2], 2.33 µM; in assay [4], 1.25 µM; in assay [7], 2.3 µM; in assay [8] it was 1.9 µM; in assay [6] it was 2.88 µM. For the same molecule, the TGI in assay [1] was above 100 µM; in assay [2], 4.97 µM; in assay [4] it was 2.62 µM; in assay [7], 5.66 µM; in assay [8], 3.41 µM; in assay [6], 6.65 µM.

Consider `CC1(c2ccccc2)CC(c2ccccc2)=NO1` (configuration not stated), for which the TGI in assay [1], in assay [2], in assay [3], in assay [9], in assay [4] and in assay [7] was above 100 µM in each case. Moreover, the TGI in [8], in assay [5] and in assay [6] was above 100 µM each time.

In the case of `CSc1c(C)c(C)nn1-c1ccccc1`, the TGI in [1], in [2], in [9], in assay [7], in assay [10] and in [8] was above 100 µM each time. Also, the TGI in [5] and in assay [6] was above 100 µM throughout.

For the molecule `Cn1cc(-c2csc(-c3cn(C)c4ccccc34)n2)c2cnccc21`, the GI50 in assay [1] is 1.78 µM; in assay [2], 2.38 µM; in assay [9], 4.08 µM; in assay [7], 1.79 µM; in assay [10], 1.7 µM; in assay [8] it was 1.26 µM. The values for the GI50 in assay [5] and in assay [6] were 1.69 µM and 1.94 µM, respectively. The TGI in assay [1] worked out at 3.86 µM; in [2], 5.01 µM; in assay [9] it was 16.9 µM; in assay [7] it was 3.49 µM; in [10], 3.28 µM; in assay [8] it was 2.6 µM. Further, the TGI in assay [5] turned out to be 3.07 µM; in [6], 4.09 µM.

As to `CCN(CC)CC(=O)N1CCc2c([nH]c3ccccc23)C1c1cccnc1` (configuration not stated), the TGI in [1], in assay [2], in [9], in [4], in assay [7] and in [8] was above 100 µM each time. In addition, the TGI in assay [5] and in assay [6] was above 100 µM each time.

`Cl[Si]1(Cl)Oc2ccccc2O[Si](Cl)(Cl)Oc2ccccc2O1`: the TGI was 10.5 µM in [1]; above 100 µM in assay [2]; above 100 µM in assay [3]; 99.1 µM in assay [9]; 89.6 µM in assay [4]; 65.9 µM in assay [7]. Besides, the results for the TGI in assay [8], in assay [5] and in assay [6] were 53.5 µM, 27 µM and 4.63 µM, respectively.

As for `Cn1c2ccccc2c2c(=O)c3ccccc3[nH]c21`, the GI50 in [2] is 26.9 µM; in assay [3], 38.8 µM; in [9], 84.7 µM; in [7] it was 32.4 µM; in assay [10] it was 54 µM; in [5], 42.9 µM. For the same molecule, in assay [6], the GI50 was 70.6 µM. Also, the TGI in [2], in [3], in [9], in assay [7], in assay [10] and in [5] was above 100 µM throughout. The TGI in assay [6] is above 100 µM.

For the molecule `O=C1C2=C(c3ccccc31)C(c1ccccc1Cl)N1C(=O)CCSC1=N2` (configuration not stated), the TGI in [1], in assay [2], in assay [3], in assay [9], in assay [4] and in assay [8] was above 100 µM throughout. Besides, the TGI in assay [5] and in [6] was above 100 µM each time.

Take `Cc1cc(N(CCC#N)CCC#N)ccc1/C=C1N=C(/C=C/c2ccccc2)OC(=O)N\1`: the TGI in assay [1], in assay [2], in [3], in [9], in [7] and in [10] was above 100 µM in each case. The TGI in assay [8], in assay [5] and in assay [6] was above 100 µM throughout.

Turning to `C#CCC(N)(CO)C(=O)O` (configuration not stated), the TGI in assay [2], in assay [3], in assay [9], in [4], in assay [7] and in assay [8] was above 100 µM throughout. For the same molecule, the TGI in [5] and in assay [6] was above 100 µM throughout.

`CCSc1nc(N)c2cn[nH]c2n1`: the GI50 was 44.6 µM in assay [2]; 16.9 µM in [3]; 1.37 µM in assay [4]; 35.1 µM in assay [7]; 13.3 µM in [10]; 18.5 µM in [5]. For the same molecule, the TGI was above 100 µM in assay [2]; 57.1 µM in [3]; 93.3 µM in assay [4]; above 100 µM in assay [7]; 35.5 µM in assay [10]; 43.6 µM in [5].

For `Cc1ccc(S(=O)(=O)N/N=C(\c2nc3ccc([N+](=O)[O-])cc3[nH]c2=O)C(O)c2ccccc2Cl)cc1` (configuration not stated), the TGI in [1], in assay [2], in assay [3], in assay [9], in [4] and in [7] was above 100 µM each time. For the same molecule, the TGI in assay [8], in assay [5] and in assay [6] was above 100 µM in each case.

`C=CCC1[C@@H](C(C)(C)C(C(C)=O)C(=O)C(=O)OC)OC(C(C)(C)C)N1C(=O)OC` (some centres not stated): the TGI in assay [1], in assay [2], in assay [3], in [9], in [4] and in assay [7] was above 100 µM each time. Also, the TGI in assay [10], in assay [8] and in assay [5] was above 100 µM throughout.

Regarding `CCOC(=O)C(=O)Nc1ccccc1C(F)(F)F`, the TGI in assay [2], in assay [3], in assay [9], in assay [4], in assay [7] and in [10] was above 100 µM in each case. The TGI in assay [8] is above 100 µM.

For `CCN(CC)CCNC(=O)c1cn2ncnc(Oc3ccc(NC(=O)Nc4ccc(Cl)c(C(F)(F)F)c4)c(F)c3)c2c1C`, the GI50 in [1] was 1.41 µM; in assay [2], 1.77 µM; in assay [3], 2.05 µM; in [9], 0.412 µM; in assay [4] it was 1.6 µM; in [7], 1.99 µM. The values for the GI50 in assay [10], in assay [8] and in [5] were 1.8 µM, 2.17 µM and 1.75 µM, respectively. In addition, the TGI in assay [1] was determined as 4.29 µM; in assay [2], 3.44 µM; in assay [3], 4.15 µM; in assay [9], 1.97 µM; in assay [4], 3.56 µM; in assay [7], 3.87 µM. The figures for the TGI in assay [10], in assay [8] and in [5] were 3.35 µM, 3.77 µM and 3.15 µM, respectively.

Take `O=c1c2c3c(sc2n2c(-c4cc(-c5ccccc5)nn4-c4ccccc4)nnc2n1Cc1ccccc1)CCCC3`: the GI50 was above 100 µM in [2]; above 100 µM in assay [3]; 12.1 µM in [9]; above 100 µM in assay [7]; above 100 µM in assay [8]; above 100 µM in assay [5]. Also, the TGI is above 100 µM in assay [2]; above 100 µM in assay [3]; 56.4 µM in assay [9]; above 100 µM in assay [7]; above 100 µM in assay [8]; above 100 µM in [5].

On to `COc1cc2cnc3c4ccccc4ccc3c2cc1OC`, for which the TGI in assay [1], in [2], in assay [9], in [7], in assay [8] and in [5] was above 100 µM in each case.

For the molecule `Cc1cc2c(Br)cc(Br)c(O)c2nc1C(=O)c1ccccc1`, the TGI was above 100 µM in assay [1]; above 100 µM in assay [2]; above 79.2 µM in assay [3]; above 100 µM in assay [9]; 30.7 µM in [7]; above 83.6 µM in assay [10]. Also, the TGI in assay [8] was above 68.2 µM; in assay [5] it was 29.8 µM; in assay [6], 8.11 µM.

Turning to `COc1cccc(/C=C2\CCC(C)(CN(C)C)C2=O)c1` (configuration not stated), the TGI in [2], in assay [3], in assay [9], in [4], in assay [7] and in assay [10] was above 100 µM in each case. Further, the TGI in [8] and in [5] was above 100 µM each time.

With `CCOC1Oc2ccccc2-c2oc(=O)c(Sc3ccc(C)cc3)cc21` (configuration not stated), the GI50 in [1] is 14.5 µM; in assay [2], 19.3 µM; in assay [3], 36.8 µM; in [9], 32.6 µM; in [4] it was 10.8 µM; in assay [7] it was 20 µM. Also, the results for the GI50 in [8], in assay [5] and in assay [6] were 52.2 µM, 26 µM and 8.98 µM, respectively. Moreover, the TGI in assay [1] is 50.2 µM; in assay [2] it was 59 µM; in [3] it was above 100 µM; in [9] it was above 100 µM; in assay [4] it was 48.4 µM; in assay [7], above 100 µM. The figures for the TGI in assay [8], in [5] and in assay [6] were above 100 µM, 95.3 µM and 60.5 µM, respectively.

As for `O=c1ncccn1C1C=C(CO)C(O)C1O` (configuration not stated), the TGI in [1], in [2], in assay [3], in [4], in [7] and in [8] was above 50 µM in each case. The TGI in [5] and in [6] was above 50 µM in each case.

With `CN(C)Cc1c[nH]c2c(NCCN)c3c(c(NCCN)c12)C(=O)c1ccccc1C3=O`, the GI50 in assay [1] was 1.06 µM; in [2] it was 3.39 µM; in assay [3], 1.56 µM; in assay [9] it was 6.13 µM; in assay [4] it was 1.53 µM; in assay [7], 8.04 µM. Further, the GI50 in [10] is 6.32 µM; in [8], 2.45 µM; in assay [5] it was 3.86 µM. In addition, the TGI in assay [1] came out at 8.93 µM; in assay [2] it was 16.2 µM; in assay [3], 5.35 µM; in assay [9], 17 µM; in assay [4], 5.49 µM; in assay [7], 26.8 µM. Further, the values for the TGI in [10], in assay [8] and in assay [5] were 18.1 µM, 8.37 µM and 9.14 µM, respectively.

As for `NC(N)=NS(=O)(=O)c1ccc(NC(=O)c2cccc3c(Nc4ccc(S(N)(=O)=O)cc4)c4ccccc4nc23)cc1`, the TGI in [1], in [2], in assay [9], in assay [4], in assay [7] and in assay [10] was above 100 µM in each case. The TGI in [8] and in assay [5] was above 100 µM in each case.

For `C=CCSc1nc2ccccc2c(=O)n1Cc1ccco1`, the TGI in [2], in assay [3], in assay [9], in [4], in assay [7] and in assay [10] was above 100 µM in each case. Also, the TGI in assay [8] and in assay [5] was above 100 µM in each case.

Values taken from PubChem BioAssay (NCI).
